Literature values, collected in EP0584511B1, “PROCESS FOR THE PREPARATION OF A COMPOSITE TEXTILE MATERIAL” (ALCANTARA S.p.A., priority 1992, dated 1994).

Conditions: substituted aromatic amines proposed as replacement extenders; background statement

Compound | classification at Ames's test
Cc1cc(Cc2cc(C)c(N)c(C(C)C)c2)cc(C(C)C)c1N [4-4' methylene-bis-(2 isopropyl-6 methylaniline)] | non cancerogenic
CCc1cc(Cc2cc(CC)c(N)c(CC)c2Cl)c(Cl)c(CC)c1N [4-4' methylene-bis-(3-chloro-2,6-diethylaniline)] | non cancerogenic
diethyltoluene diamine | non cancerogenic
